Entries after “also recorded” stand apart in the source; their conditions may differ.
Columns and labels:
human hepatocytes [1] = experiment: Metabolism of 5-MeO-DMT in human hepatocytes in suspension; assay type: in vitro ADME; details: 5-MeO-DMT free base 10 μM incubated up to 120 minutes
Protocol: All samples were stored at −80° C. (nominal) prior to analysis.
Appropriate blank and control samples were also analysed. […] (nominal).

human hepatocytes [2] = experiment: Metabolic stability in Hprel human hepatocyte co-culture; assay type: in vitro ADME; details: for Half-life / In vitro intrinsic clearance: human hepatocytes, 1 μM; for Predicted hepatic extraction ratio: human, Hprel HumanPool human hepatocyte co-culture; for Disappearance with stromal cell controls: stromal cells
Protocol: The incubations were performed using 1 and 10 μM initial concentrations and sampling at 0, 1, 2, 4, 8, 24, 48, and 72 hours (h) time points. The samples were analysed using UPLC/QE-orbitrap-MS.
The remaining LC/MS peak areas detected for test compounds after each incubation time point with Hprel co-culture assay, relative to corresponding 0 min incubation samples, are shown in the tables below.

human plasma protein = experiment: Plasma binding of 5-MIAA; assay type: in vitro ADME
Protocol: Binding to human plasma protein was determined. Reported are the unbound fraction (fu) for three replicates as well as the mean unbound fraction, the standard deviation and the mean % recovery (Table 8).

[3] = LC-MS/MS of 5-MeO-DMT, bufotenine and 5-MIAA in breastmilk, serum and urine of a treated PPD patient; infant dose estimates
[4] = 5 kg infant, three feeds of 250 ml
[5] = 1.0 hrs after last dose, second PPD patient, inhaled 5-MeO-DMT, LC-MS/MS
[6] = 2.5 hrs after last dose, second PPD patient, inhaled 5-MeO-DMT, LC-MS/MS
[7] = 8.5 hrs after last dose, second PPD patient, inhaled 5-MeO-DMT, LC-MS/MS
[8] = 120.0 hrs after last dose, second PPD patient, inhaled 5-MeO-DMT, LC-MS/MS
[9] = timepoint −24.0 hrs (pre-dosing), second PPD patient, inhaled 5-MeO-DMT 6 mg then 12 mg, LC-MS/MS
[10] = serum, 1.0 hrs after last dose, second PPD patient, inhaled 5-MeO-DMT, LC-MS/MS
[11] = urine, 2.5 hrs after last dose, second PPD patient, inhaled 5-MeO-DMT, LC-MS/MS

## COc1ccc2[nH]cc(CC(=O)O)c2c1 [5-MIAA, 5-methoxyindole-3-acetic acid]
Human hepatocytes [1]
  Relative Proportion of compounds identified: about 60%
Human hepatocytes [1]; listed as 5-Methoxyindole acetic acid (5-MIAA)
  Relative Proportion of compounds identified: 61%
Human hepatocytes [2]; 1 μM Hepatocytes, 1 h
  Relative LC/MS peak area: 98%
Human hepatocytes [2]; 1 μM Hepatocytes, 2 h
  Relative LC/MS peak area: 100%
Human hepatocytes [2]; 1 μM Hepatocytes, 4 h
  Relative LC/MS peak area: 99%
Human hepatocytes [2]; 1 μM Hepatocytes, 8 h
  Relative LC/MS peak area: 95%
Human hepatocytes [2]; 1 μM Hepatocytes, 24 h
  Relative LC/MS peak area: 99%
Human hepatocytes [2]; 1 μM Hepatocytes, 48 h
  Relative LC/MS peak area: 88%
Human hepatocytes [2]; 1 μM Hepatocytes, 72 h
  Relative LC/MS peak area: 82%
Human hepatocytes [2]; 1 μM Stromal cells, 4 h
  Relative LC/MS peak area: 103%
Human hepatocytes [2]; 1 μM Stromal cells, 8 h
  Relative LC/MS peak area: 107%
Human hepatocytes [2]; 1 μM Stromal cells, 24 h
  Relative LC/MS peak area: 108%
Human hepatocytes [2]; 1 μM Stromal cells, 48 h
  Relative LC/MS peak area: 111%
Human hepatocytes [2]; 1 μM Stromal cells, 72 h
  Relative LC/MS peak area: 135%
Human hepatocytes [2]; 10 μM Hepatocytes, 1 h
  Relative LC/MS peak area: 97%
Human hepatocytes [2]; 10 μM Hepatocytes, 2 h
  Relative LC/MS peak area: 100%
Human hepatocytes [2]; 10 μM Hepatocytes, 4 h
  Relative LC/MS peak area: 103%
Human hepatocytes [2]; 10 μM Hepatocytes, 8 h
  Relative LC/MS peak area: 96%
Human hepatocytes [2]; 10 μM Hepatocytes, 24 h
  Relative LC/MS peak area: 96%
Human hepatocytes [2]; 10 μM Hepatocytes, 48 h
  Relative LC/MS peak area: 86%
Human hepatocytes [2]; 10 μM Hepatocytes, 72 h
  Relative LC/MS peak area: 75%
Human hepatocytes [2]; 10 μM Stromal cells, 4 h
  Relative LC/MS peak area: 101%
Human hepatocytes [2]; 10 μM Stromal cells, 8 h
  Relative LC/MS peak area: 106%
Human hepatocytes [2]; 10 μM Stromal cells, 24 h
  Relative LC/MS peak area: 97%
Human hepatocytes [2]; 10 μM Stromal cells, 48 h
  Relative LC/MS peak area: 103%
Human hepatocytes [2]; 10 μM Stromal cells, 72 h
  Relative LC/MS peak area: 115%
Human hepatocytes [2]; hepatocytes, 1 and 10 μM
  Remaining abundance after 72 h: 75-82%
Human hepatocytes [2]
  Half-life: 15 400 min
  In vitro intrinsic clearance: 0.15 μl/min/million cells
  Predicted hepatic extraction ratio: 2%
  Disappearance with stromal cell controls: no disappearance
Human hepatocytes [2]; in the presence of hepatocytes
  Metabolic turnover: low metabolic turnover
Human plasma protein
  Mean % Recovery: 81.4%
  Mean fu: 0.502
  Plasma binding (mean fraction unbound): ~50%
  Unbound fraction (fu), Replicate 1: 0.499
  Unbound fraction (fu), Replicate 2: 0.462
  Unbound fraction (fu), Replicate 3: 0.544
[3]; [4]
  DID per kg infant weight: 0.001377 mg/kg/day
  Total exposure of the infant (DID): 0.006886 mg/day
[3]; 1 hour after last dose (6 mg + 12 mg 5-MeO-DMT)
  Concentration in breast milk: 13.9452 ng/mL
[3]; 2.5 hours
  Peak urine concentration relative to serum: approx. 127 times
[3]; 2.5 hours after last dose
  Concentration in breast milk: 13.2409 ng/mL
  Urine concentration: 12 980 501 pg/ml
[3]; 8.5 hours after last dose
  Concentration in breast milk: 0.3594 ng/mL
[3]; [5]
  Breastmilk concentration: 13945.2 pg/mL
[3]; [6]
  Breastmilk concentration: 13240.9 pg/mL
[3]; [7]
  Breastmilk concentration: 359.4 pg/mL
[3]; [8]
  Breastmilk concentration: BLQ
[3]; [9]
  Breastmilk concentration: BLQ
[3]; female, human, breast milk, inhaled
  concentration at 24 h: 0.0355 ng/mL
[3]; female, human, serum, inhaled
  concentration at 2.5 h: 102 ng/mL
  concentration at 24 h: 0.271 ng/mL
  concentration at 120 h: 0.0671 ng/mL
[3]; female, human, urine, inhaled
  concentration at 2.5 h: ~13000 ng/mL
  concentration at 8.5 h: 292 ng/mL
  concentration at 24 h: 18.6 ng/mL
  concentration at 120 h: 9.44 ng/mL
[3]; [10]
  Serum concentration: 263.092 ng/mL
[3]; [11]
  Urine concentration: 12980501 pg/mL

## COc1ccc2[nH]cc(CC[N+](C)(C)[O-])c2c1 [5-MeO-DMT-N-oxide]
Human hepatocytes [1]
  Relative Proportion of compounds identified: 1%

## COc1ccc2[nH]cc(CCO)c2c1 [5-methoxytryptophol, 5-Methoxyindole-3-ethanol]
Human hepatocytes [1]
  Relative Proportion of compounds identified: 25%
Human hepatocytes [2]; 1 μM Hepatocytes, 1 h
  Relative LC/MS peak area: 79%
Human hepatocytes [2]; 1 μM Hepatocytes, 2 h
  Relative LC/MS peak area: 57%
Human hepatocytes [2]; 1 μM Hepatocytes, 4 h
  Relative LC/MS peak area: 33%
Human hepatocytes [2]; 1 μM Hepatocytes, 8 h
  Relative LC/MS peak area: 10%
Human hepatocytes [2]; 1 μM Hepatocytes, 24 h
  Relative LC/MS peak area: 0%
Human hepatocytes [2]; 1 μM Hepatocytes, 48 h
  Relative LC/MS peak area: 0%
Human hepatocytes [2]; 1 μM Hepatocytes, 72 h
  Relative LC/MS peak area: 0%
Human hepatocytes [2]; 1 μM Stromal cells, 4 h
  Relative LC/MS peak area: 97%
Human hepatocytes [2]; 1 μM Stromal cells, 8 h
  Relative LC/MS peak area: 107%
Human hepatocytes [2]; 1 μM Stromal cells, 24 h
  Relative LC/MS peak area: 94%
Human hepatocytes [2]; 1 μM Stromal cells, 48 h
  Relative LC/MS peak area: 102%
Human hepatocytes [2]; 1 μM Stromal cells, 72 h
  Relative LC/MS peak area: 104%
Human hepatocytes [2]; 10 μM Hepatocytes, 1 h
  Relative LC/MS peak area: 87%
Human hepatocytes [2]; 10 μM Hepatocytes, 2 h
  Relative LC/MS peak area: 81%
Human hepatocytes [2]; 10 μM Hepatocytes, 4 h
  Relative LC/MS peak area: 68%
Human hepatocytes [2]; 10 μM Hepatocytes, 8 h
  Relative LC/MS peak area: 42%
Human hepatocytes [2]; 10 μM Hepatocytes, 24 h
  Relative LC/MS peak area: 1%
Human hepatocytes [2]; 10 μM Hepatocytes, 48 h
  Relative LC/MS peak area: 0%
Human hepatocytes [2]; 10 μM Hepatocytes, 72 h
  Relative LC/MS peak area: 0%
Human hepatocytes [2]; 10 μM Stromal cells, 4 h
  Relative LC/MS peak area: 99%
Human hepatocytes [2]; 10 μM Stromal cells, 8 h
  Relative LC/MS peak area: 105%
Human hepatocytes [2]; 10 μM Stromal cells, 24 h
  Relative LC/MS peak area: 86%
Human hepatocytes [2]; 10 μM Stromal cells, 48 h
  Relative LC/MS peak area: 98%
Human hepatocytes [2]; 10 μM Stromal cells, 72 h
  Relative LC/MS peak area: 104%
Human hepatocytes [2]
  Half-life: 142 min
  In vitro intrinsic clearance: 16.2 μl/min/million cells
  Predicted hepatic extraction ratio: 67%
  Disappearance with stromal cell controls: no disappearance
Human hepatocytes [2]; in the presence of hepatocytes
  Metabolic turnover: high metabolic turnover
  Time to complete disappearance: ≤ 24 h

## CC(=O)CC(c1ccccc1)c1c(O)c2ccccc2oc1=O (centres unmarked) [Warfarin, reference compound]
Human plasma protein
  Mean % Recovery: 78.1%
  Mean fu: 0.0377
  Unbound fraction (fu), Replicate 1: 0.0418
  Unbound fraction (fu), Replicate 2: 0.0356
  Unbound fraction (fu), Replicate 3: 0.0358

## CN(C)CCc1c[nH]c2ccc(O)cc12 [bufotenine]
Human hepatocytes [1]
  Relative Proportion of compounds identified: 5%
[3]; any time point
  Detection in breastmilk: not detected; also recorded: absence
  Detection in serum: not detected
[3]; [5]
  Breastmilk concentration: BLQ
[3]; [6]
  Breastmilk concentration: BLQ
[3]; [7]
  Breastmilk concentration: BLQ
[3]; 24.0 hrs after last dose, second PPD patient, inhaled 5-MeO-DMT, LC-MS/MS
  Breastmilk concentration: BLQ
[3]; [8]
  Breastmilk concentration: BLQ
[3]; [9]
  Breastmilk concentration: BLQ
[3]; [10]
  Serum concentration: BLQ
[3]; serum, 2.5 hrs after last dose, second PPD patient, inhaled 5-MeO-DMT, LC-MS/MS
  Serum concentration: BLQ
[3]; serum, 24.0 hrs after last dose, second PPD patient, inhaled 5-MeO-DMT, LC-MS/MS
  Serum concentration: BLQ
[3]; serum, 120.0 hrs after last dose, second PPD patient, inhaled 5-MeO-DMT, LC-MS/MS
  Serum concentration: BLQ
[3]; serum, timepoint −24.0 hrs (pre-dosing), second PPD patient, inhaled 5-MeO-DMT 6 mg then 12 mg, LC-MS/MS
  Serum concentration: BLQ
[3]; [11]
  Urine concentration: 32.3 pg/mL
[3]; urine, 8.5 hrs after last dose, second PPD patient, inhaled 5-MeO-DMT, LC-MS/MS
  Urine concentration: BLQ
[3]; urine, 24.0 hrs after last dose, second PPD patient, inhaled 5-MeO-DMT, LC-MS/MS
  Urine concentration: BLQ
[3]; urine, 120.0 hrs after last dose, second PPD patient, inhaled 5-MeO-DMT, LC-MS/MS
  Urine concentration: BLQ
[3]; urine, timepoint −24.0 hrs (pre-dosing), second PPD patient, inhaled 5-MeO-DMT 6 mg then 12 mg, LC-MS/MS
  Urine concentration: BLQ

Source: patent publication US20240115549A1, “TREATMENT OF MENTAL DISORDERS” (GH Research Ireland Limited, priority 2022, published 2024)
